The data set can be described thus: physchem. Format: physicochemical. The method, then:
Peptide used as model: H-Gly-Gly-Gly-NH2
H-Gly-Gly-Gly-NH2 and H-Gly-Gly-Gly-NH-(TIPS2-Dpm) were synthesized, CPME (cyclopentyl methyl ether) was saturated with each of the compounds at 25° C., and the solubility was measured.

SMILES strings stand for the structures. Values after ≈ are worked out from the molar mass of the structure shown. Where a SMILES comes first, the peptide text is derived from it.

As usually defined, the solubility is how much of the substance goes into solution per volume. A lower solubility goes with little dissolved substance. The compound `NCC(=O)NCC(=O)NCC(N)=O` [H-Gly-Gly-Gly-NH2, reference compound] (H-Gly-Gly-Gly-NH2) displayed a solubility of 0.039 mM (≈ 0.00734 mg/mL).

As to `CC(C)[Si](OCCCCCCCCCCCOc1ccc(C(NC(=O)CNC(=O)CNC(=O)CN)c2ccc(OCCCCCCCCCCCO[Si](C(C)C)(C(C)C)C(C)C)cc2)cc1)(C(C)C)C(C)C` [H-Gly-Gly-Gly-NH-(TIPS2-Dpm)], the increase in solubility is given as ≥ 10,000 fold and the solubility amounted to 426 mM (≈ 443 mg/mL).

(Values after patent US11485747B2, “Diphenylmethane protective agent” (priority 2016, dated 2022).)
